# Test results as given in patent EP4711366A1, “PYRIMIDO MACROHETEROCYCLIC COMPOUND AS WEE1-YES DUAL-TARGET INHIBITOR AND USE THEREOF” (Mindrank AI Ltd., priority 2023, dated 2024).
# Experiments:
# YES1 kinase = YES1 kinase (Homo sapiens, UniProt P07947); test: YES1 protein kinase inhibitory activity assay (HTRF); assay type: biochemical; details: for IC50: HTRF, YES1 kinase, ATP 10 µM
# Description: In this experiment, the capability of the compound MRANK-106 of the present disclosure to inhibit kinase activity was assessed by an HTRF method using a drug screening system based on the YES1 kinase.
# Table 3-1. Information about reagents and consumables
# The enzymatic activity conditions and HTRF system formulation are shown in Table 3-3; the experimental conditions for the kinase activity assay are shown in Table 3-4. Table 3-3. HTRF system formulation
# Table 3-4. The experimental conditions for the kinase activity assay
# The test compound MRANK-106 was dissolved in DMSO, and the solution was vortexed and shaken for thorough mixing. The solution was serially diluted 3-fold with DMSO, with the initial concentration being 503 nM.
# ① A 2× ATP/substrate solution and a 2× kinase solution were formulated using a kinase reaction buffer.
# ② 50 nL of the compound dilution was transferred to a 384 detection plate using Echo 655. After centrifugation, 2.5 µL of a 2× kinase solution was added to the 384 detection plate. The plate was centrifuged at 1000 rpm for 1 min and incubated at 25 °C for 10 min.
# ② 2.5 µL of the 2× substrate and ATP solution was added to the 384 detection plate, and the plate was centrifuged at 1000 rpm for 1 min and incubated at 25 °C for 60 min.
# ④ A 2× XL665 and antibody detection reagent was formulated using a detection buffer.
# ⑤ 5 µL of a kinase detection reagent was added to the detection plate, and the plate was incubated at 25 °C. The plate was centrifuged at 1000 rpm for 1 min and incubated at 25 °C for 1 h.
# ⑥ The fluorescence signals at 620 nm (Cryptate) and 665 nm (XL665) were read using a BMG high-throughput drug-screening multi-mode microplate reader.
# With the reading of the negative control set as an inhibition rate of 0% and the reading of the positive control set as an inhibition rate of 100%, the inhibition rate of each test solution was calculated using the following formula: [formula] • Datapositive control: the average of the positive control well values • Datanegative control : the average of the negative control well values
# The IC50 (half maximal inhibitory concentration) of the compound was obtained using the following nonlinear fitting formulas: Y = Bottom + (Top−Bottom)/(1+10^(∧)((LogIC50−X)*HillSlope)) [formula] • X: the log value of the compound concentration • Y: the inhibition rate (% inh) of the compound
# The Z' factor calculation equation: Z′ = 1−3(SDmin+SDmax)/(AVEmax−AVEmin) [formula] where: • Min is the positive control Data value, and Max is the negative control DMSO Data value; • SD stands for standard deviation, and AVE stands for average.
# A427 cells = test: Tumor cell proliferation inhibitory activity assay (CCK-8); assay type: cell-based, Human; details: for IC50: Homo sapiens, A-427, 72 h compound incubation, CCK-8
# Description: Human lung cancer A427 cells are cancer cells reported to be sensitive to wee1 inhibitors. In this assay, the anti-cancer effects of the compounds of the present disclosure were verified by assessing the activity of the test substances in inhibiting A427 cell proliferation.
# A427 cells were cultured according to the cell culture instructions, and cells in the logarithmic growth phase were collected, counted, resuspended in a complete culture medium, and inoculated into a 96-well plate at a cell concentration of 100 µL/3000 cells/well. The cells were incubated in an incubator at 37 °C with 100% relative humidity and 5% CO2 for 24 h.
# The compounds to be tested were dissolved in DMSO and diluted 4-fold with a culture medium from 10 µM to 10 concentration gradients.
# The culture medium waste was pipetted off, and 100 µL of the formulated culture medium of the compound to be tested was added to each well. The cells were incubated in an incubator at 37 °C with 100% relative humidity and 5% CO2 for 72 h.
# The plate was taken out, the CCK-8 reagent was added at 10 µL/well, and the plate was incubated in an incubator at 37 °C for 2-4 h.
# The cell growth inhibition rates of the drugs were calculated using the following formula: Cell growth inhibition rate% = [(Ac−As)/(Ac−Ab)] × 100% [formula] • As: the OA of the samples (cells + CCK-8 + compounds to be tested) • Ac: the OA of the normal growth cell control (cells + CCK-8) • Ab: the OA of the blank control (culture medium + CCK-8)
# IC50 curve fitting was performed using the software Graphpad Prism 6 and the calculation formula XY-analysis/Nonlinear regression(curve fit)/Dose response-Inhibition/log(inhibitor)vs. response-Variable slope(four parameters), and the IC50 values were calculated. Table 1. Data analysis and results for some representative compounds
# [1] = tested on: Human colon cancer LoVo cells; test: In vivo efficacy study against LoVo tumors (subcutaneous tumor-bearing model); parameters: species or system BALB/c nude mice; details: for Relative tumor inhibition (%) Day 28 / Relative tumor volume Day 28: PO
# Source text: Human colon cancer LoVo cells were subcultured and expanded in an F12K culture medium containing 10% FBS. BALB/c nude mice aged 6-8 weeks were taken and each subcutaneously injected with 2 × 10^6 cells to establish a tumor-bearing model. The tumor volume was monitored, and when the tumor volume reached about 150 mm^3, the animals were randomized into 5 groups according to body weight and tumor volume. The animals were given, by oral gavage, the vehicle or compounds to be tested (ZN-c3 and IE) once daily for a total of 28 days. During the period of administration, the tumor volume and the animal body weight were measured twice a week, and the animals' states were observed daily. At the endpoint, the animals were euthanized with carbon dioxide, and the subcutaneous tumors were isolated and weighed.
# The data calculation formulae are shown below: The tumor volume (TV) was calculated using the formula 1/2×axb^2, where a and b represent the length and width measurements of the tumor, respectively.
# The tumor growth inhibition rate (%TGITV) was calculated using the formula (1 - TVT/TVC) × 100%, where TVC represents the average tumor volume of the negative control group, and TVT represents the average tumor volume of the treatment group.
# The relative tumor volume (RTV) was calculated using the formula Vt/V0, where V0 represents the tumor volume at the time of grouping, and Vt represents the tumor volume at each measurement.
# YES1 kinase, sequence (P07947 whole entry): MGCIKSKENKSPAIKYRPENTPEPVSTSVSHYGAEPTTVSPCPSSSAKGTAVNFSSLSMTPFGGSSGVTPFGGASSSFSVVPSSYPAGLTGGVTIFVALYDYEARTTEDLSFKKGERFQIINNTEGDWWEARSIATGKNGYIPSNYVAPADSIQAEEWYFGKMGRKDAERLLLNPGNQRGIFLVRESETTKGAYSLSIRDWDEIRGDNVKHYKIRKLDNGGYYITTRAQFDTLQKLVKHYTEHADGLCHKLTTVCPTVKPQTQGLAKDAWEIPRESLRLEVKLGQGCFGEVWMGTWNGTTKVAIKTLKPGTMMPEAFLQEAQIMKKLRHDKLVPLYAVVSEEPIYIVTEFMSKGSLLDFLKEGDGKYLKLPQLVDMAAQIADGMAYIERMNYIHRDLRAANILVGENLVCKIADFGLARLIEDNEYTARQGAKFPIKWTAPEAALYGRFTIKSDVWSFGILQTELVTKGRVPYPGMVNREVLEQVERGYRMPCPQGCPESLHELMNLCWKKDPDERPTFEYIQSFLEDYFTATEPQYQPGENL
SMILES,IC50 (YES1 kinase) [µM],inhibition of the Yes target (in words) (YES1 kinase; summary statement on the assay results),IC50 (A427 cells) [µM],activity in inhibiting cancer cell proliferation compared with reference compound Debio 0123 or ZN-c3 (A427 cells; comparison in words),"Relative tumor inhibition (%) Day 28 ([1]; 20 mg/kg, QD × 28) [%]","Relative tumor volume Day 28 ([1]; 20 mg/kg, QD × 28)","Relative tumor inhibition (%) Day 28 ([1]; 40 mg/kg, QD × 28) [%]","Relative tumor volume Day 28 ([1]; 40 mg/kg, QD × 28)","Relative tumor inhibition (%) Day 28 ([1]; 80mg/kg, QD×28) [%]","Relative tumor volume Day 28 ([1]; 80mg/kg, QD×28)",activity in inhibiting tumor growth in the LoVo tumor model compared with ZN-c3 ([1]; comparison in words)
"Cc1cc(Nc2ncc3c(=O)n4n(c3n2)-c2cccc(n2)[C@](C)(O)CCC=CC4)ccc1OC1CCN(C)CC1 (stereo in doubt) [Compound IE, (R,Z)-12-hydroxy-12-methyl-2-((3-methyl-4-((1-methylpiperidin-4-yl)oxy)phenyl)amino)-7,10,11,12-tetrahydro-5H-13,17-(azeno)pyrimido[4',5':3,4]pyrazolo[1,2-a] [1,2]diazacyclotridecin-5-one]",0.00305,strongly inhibited,0.013,several times to several dozen times higher,60.90,2.28,89.12,0.63,97.12,0.17,significantly better activity than ZN-c3
"C=CCn1c(=O)c2cnc(Nc3ccc(N4CCN(C)CC4)cc3)nc2n1-c1ccc2c(n1)C(O)(CC)CC2 (stereo not drawn) [ZN-c3, reference compound]",> 0.5,–,0.129,–,–,–,–,–,57.98,2.41,–
